Assay results reported in patent publication US20260274894A1, “CYCLIC POLYPEPTIDE COMPOUND AND USE THEREOF” (BIVISION PHARMACEUTICALS, INC., priority 2023, published 2026).
One block for each molecule: values may come before it. Numbered stars: 1 amine (or outer) side, 2 acyl side, 3 side chain; on linkers, the order of the positions; unused ones are H or OH. Bridge positions count the residues as written; N and C are the ends. Square brackets hold non-standard residues; d marks the D form. Side chains are listed from the residue outwards. Peptide text beside a SMILES is read from it. * marks the point of attachment. ξ: configuration not given here. NH(CH2)2(4-DOTA-piperazinyl) = O=C(O)CN1CCN(CC(=O)O)CCN(CC(=O)N2CCN(CCN*)CC2)CCN(CC(=O)O)CC1; X2 = O=C(O)CN1CCN(CC(=O)O)CCN(CC(=O)N2CCN(CCCN*)CC2)CCN(CC(=O)O)CC1; DOTA = O=C(O)CN1CCN(CC(=O)O)CCN(CC(=O)*)CCN(CC(=O)O)CC1; Azetidine3carboxylic = O=C(C1CN([*:1])C1)[*:2]; mXylylene = c1cc(C[*:1])cc(C[*:2])c1; Cha = N[C@@H](CC1CCCCC1)C(=O)O; Dap = NC[C@H](N)C(=O)O; Hexanoyl = CCCCCC(=O)*; CO = O=C([*:1])[*:2]; ξP = O=C(O)C1CCCN1; Ava = NCCCCC(=O)O; ξC = NC(CS)C(=O)O; NHBu = CCCCN*

Tests used:
[1] = Determination of C Log P (n-octanol/water partition, gamma counts); type: physicochemical
Method: Two EP tubes were taken, and 100 μL of saturated n-octanol aqueous solution and 80 µL of pure water were added to each tube, respectively. […] After shaking and mixing for 2 hours, the tubes were centrifuged at room temperature at 2000 rpm/min for 5 minutes. 20 μL was taken from the upper layer (lipid layer) and lower layer (aqueous layer) of each tube, and gamma counts were measured.

HT1080 2 # = assay: Therapeutic results of ^177Lu-labeled compound in tumor-bearing mice (tumor volume); type: in vivo, Balb/c Nude mice
Method: The body weight and tumor size were measured.

FAP protein = biological target: T1, FAP protein (Homo sapiens, UniProt Q12884); assay: Biacore test of compound affinity to FAP protein; conditions: Biacore 8K, SA chip, 15° C., 1:1 binding model; for Kd: read-out: pKD (FAP) (converted)
T1 construct: purchased Sinobiological
T1 sequence (Q12884 1-760): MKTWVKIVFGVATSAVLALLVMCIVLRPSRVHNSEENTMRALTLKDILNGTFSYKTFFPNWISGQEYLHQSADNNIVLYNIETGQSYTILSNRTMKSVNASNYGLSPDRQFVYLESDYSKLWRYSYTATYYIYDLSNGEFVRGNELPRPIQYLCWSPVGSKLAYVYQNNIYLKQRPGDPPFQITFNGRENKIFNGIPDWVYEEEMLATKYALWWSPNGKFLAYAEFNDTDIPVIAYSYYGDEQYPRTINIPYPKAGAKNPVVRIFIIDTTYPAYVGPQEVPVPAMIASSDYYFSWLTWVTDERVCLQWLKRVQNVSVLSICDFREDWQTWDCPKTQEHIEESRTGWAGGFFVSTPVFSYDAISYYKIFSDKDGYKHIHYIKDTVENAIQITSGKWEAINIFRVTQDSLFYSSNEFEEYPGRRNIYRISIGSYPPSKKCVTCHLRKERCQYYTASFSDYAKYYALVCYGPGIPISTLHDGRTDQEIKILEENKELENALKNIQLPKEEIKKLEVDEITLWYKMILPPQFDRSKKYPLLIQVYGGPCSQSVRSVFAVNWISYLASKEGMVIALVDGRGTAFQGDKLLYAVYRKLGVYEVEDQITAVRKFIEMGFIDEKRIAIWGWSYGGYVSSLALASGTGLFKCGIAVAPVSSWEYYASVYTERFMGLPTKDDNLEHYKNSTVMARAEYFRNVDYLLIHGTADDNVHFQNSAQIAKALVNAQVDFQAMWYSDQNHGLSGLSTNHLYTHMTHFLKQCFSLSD
Method: The Biacore 8K (Cytiva) instrument was used to detect ligand binding of the FAP protein (Sinobiological). FAP protein was captured on the SA chip. […] The sensor surface was conditioned by injecting 1M NaCl three consecutive times in 50 mM NaOH. After each ligand injection, additional cleaning was performed using isopropanol in 1M NaCl and 50 mM NaOH (flow path 1 and 2, flow rate of 10 μL/min, injection time of 60 s). […] The analyte was run under the following conditions: analysis temperature of 15° C., analysis step=all set to LMW kinetics; cycle type=single cycle (contact time of 90 s, dissociation time of 1800 s, flow rate of 30 μL/min, flow channels 1 and 2); channel detection=2-1. Data was evaluated using the Biacore Insight Evaluation Software, and the data were fitted to a 1:1 binding model. The Biacore results are shown in Table 2 below: pKD=−Log KD, where KD is the binding affinity of the compound to the FAP protein as measured by Biacore.

- logP [1]: -3.65
SMILES: CCCCCC(=O)N[C@H]1CCCCn2cc(nn2)CC(C(=O)N[C@@H](CCCCNC(=O)CN2CCN(CC(=O)O)CCN(CC(=O)O)CCN(CC(=O)O)CC2)C(=O)O)NC(=O)[C@H](Cc2ccccc2)NC(=O)[C@H](CCC(N)=O)NC(=O)[C@H]([C@@H](C)O)NC(=O)C2CCCN2C(=O)N[C@@H]2CCCN(C2)C1=O (single isomer, unassigned) [^177Lu -JHDC11, metal not drawn]

- logP [1]: -3.81
SMILES: CCCCCC(=O)N[C@H]1CCCCn2cc(nn2)CSC[C@@H](C(=O)N[C@@H](CCCCNC(=O)COCCNC(=O)CN2CCN(CC(=O)O)CCN(CC(=O)O)CCN(CC(=O)O)CC2)C(=O)O)NC(=O)[C@H](Cc2ccccc2)NC(=O)[C@H](CCC(N)=O)NC(=O)[C@H]([C@@H](C)O)NC(=O)[C@@H]2CCCN2C(=O)C2CN(C2)C1=O (single isomer, unassigned) [^177Lu -JHDC12, metal not drawn]

SMILES: CCCCNC(=O)N[C@H]1CSCc2cncc(c2)CSC[C@@H](C(=O)N[C@@H](CCC(=O)NCCN2CCN(C(=O)CN3CCN(CC(=O)O)CCN(CC(=O)O)CCN(CC(=O)O)CC3)CC2)C(=O)O)NC(=O)[C@H](CC2CCCCC2)NC(=O)[C@H](CCC(N)=O)NC(=O)[C@H]([C@@H](C)O)NC(=O)[C@@H]2CCCN2C(=O)C2CN(C2)C1=O (single isomer, unassigned) [^177Lu-JHDC46, metal not drawn]
- Tumor volume (mm^3) (HT1080 2 #; Day 0): 400.31 ± 78.63 mm^3
- Tumor volume (mm^3) (HT1080 2 #; Day 2): 483.08 ± 95.00 mm^3
- Tumor volume (mm^3) (HT1080 2 #; Day 6): 203.26 ± 49.63 mm^3
- Tumor volume (mm^3) (HT1080 2 #; Day 9): 168.29 ± 33.83 mm^3
- Tumor volume (mm^3) (HT1080 2 #; Day 13): 313.94 ± 119.95 mm^3
- Tumor volume (mm^3) (HT1080 2 #; Day 16): 686.05 ± 297.66 mm^3

- Kd (FAP protein): 10 to 100 nM
SMILES: CCCCNC(=O)N[C@H]1CSCc2cccc(c2)CSCC(C(=O)N[C@@H](CNC(=O)CCCCNC(=O)CN2CCN(CC(=O)O)CCN(CC(=O)O)CCN(CC(=O)O)CC2)C(=O)O)NC(=O)[C@H](Cc2ccccc2)NC(=O)[C@H](CCC(N)=O)NC(=O)[C@H]([C@@H](C)O)NC(=O)C2CCCN2C(=O)C2CN(C2)C1=O (stereo partly drawn) [JHDC41, nBu-urea-[Cys(3MeBn)-hhy39-Pro-Thr-Gln-Phe-Cys]-DAPA-(APTA-DOTA)-OH] ({NHBu-CO}-C[Azetidine3carboxylic][ξP]TQF[ξC][Dap]([Ava-DOTA])-OH; linker 1-7 via mXylylene)

- Kd (FAP protein): < 10 nM
SMILES: CCCCCC(=O)N[C@H]1CSCc2cccc(c2)CSCC(C(=O)N[C@@H](CCC(=O)NCCCN2CCN(C(=O)CN3CCN(CC(=O)O)CCN(CC(=O)O)CCN(CC(=O)O)CC3)CC2)C(=O)O)NC(=O)[C@H](Cc2ccccc2)NC(=O)[C@H](CCC(N)=O)NC(=O)[C@H]([C@@H](C)O)NC(=O)C2CCCN2C(=O)C2CN(C2)C1=O (stereo partly drawn) [JHDC45, Hex-[Cys(3MeBn)-hhy39-Pro-Thr-Gln-Phe-Cys]-Glu-(aminopropylpiperazine-DOTA)-NH2] (Hexanoyl-C[Azetidine3carboxylic][ξP]TQF[ξC]E(X2)-OH; linker 1-7 via mXylylene)

- pKD (FAP) (FAP protein): B (B: 7<pKD<8)
SMILES: CCCCNC(=O)N[C@H]1CSCc2cccc(c2)CSC[C@@H](C(=O)N[C@@H](CCC(=O)NCCN2CCN(C(=O)CN3CCN(CC(=O)O)CCN(CC(=O)O)CCN(CC(=O)O)CC3)CC2)C(=O)O)NC(=O)[C@H](CC2CCCCC2)NC(=O)[C@H](CCC(N)=O)NC(=O)[C@H]([C@@H](C)O)NC(=O)[C@@H]2CCCN2C(=O)C2CN(C2)C1=O [JHDC46, nBu-urea-[Cys(3MePy)-hhy39-Pro-Thr-Gln-hhy34-Cys]-Glu-(aminoethylpiperazine-DOTA)-OH] ({NHBu-CO}-C[Azetidine3carboxylic]PTQ[Cha]CE(NH(CH2)2(4-DOTA-piperazinyl))-OH; linker 1-7 via mXylylene)
